From patent publication US12377066B2, “Treatment of diseases associated with biliary system destruction” (Assistance Publique-Hopitaux de Paris, priority 2018, dated 2025)
“Also recorded” adds a separate entry of the source.

Legend:
[1] = system: BA patients; conditions: large clinical use during many years, no controlled studies; cited from earlier work
[2] = system: Vps15 LKO mice; experiment: Histological analyses of liver tissue (hematoxylin/eosin, Sirius Red) in treated control and Vps15 LKO mice; assay type: in vivo; conditions: two weeks
Description: (§1) The Vsp15 conditional mutant mouse line was established at the MCI/ICS (Mouse Clinical Institute—Institute Clinique de la Souris, Illkirch, France) as described (Nemazanyy, I. et al. Defects of Vps15 in skeletal muscles lead to autophagic vacuolar myopathy and lysosomal disease. EMBO Mol. Med. (2013). Liver specific Vps15 knockout mouse line was generated as described (Nemazanyy I et al., Class III PI3K regulates organismal glucose homeostasis by providing negative feedback on hepatic insulin signalling. Nat Commun. 2015 Sep. 21; 6:8283.). Mice were housed in specific pathogen-free conditions. Male mice (5-8-week-old) were used for the experimentation. Mice were randomly allocated to experimental groups and at least three animals were used for each condition (as indicated in figure legends) to ensure statistics analyses. Animal numbers were chosen to reflect the expected magnitude of response that takes into account the variability observed in previous experiments. All animal studies were approved by the Direction Départementale des Services Vétérinaires, Prefecture de Police, Paris, France (authorization number 75-1313) and the ethical committee of Paris Descartes University (17-052).
(§2) All animals used in the study were fed ad libitum standard chow diet (Teklad global protein diet; 20% protein, 75% carbohydrate, 5% fat) and kept under 12 h/12 h (8 am/8 pm) light on/off cycle. Animals were sacrificed between 2-4 pm unless indicated. […] For 5-bromo-2′deoxyuridine (BrdU) incorporation, mice were treated with BrdU (3 mg/ml, Sigma-Aldrich) dissolved in drinking water for 3 days before sacrifice. […]. For immunohistochemical analysis liver tissue was fixed overnight in phosphate-buffered 10% formalin and embedded in paraffin. […] sections were cut and processed either for staining with eosin/hematoxylin, Sirius Red or for immunohistochemical analyses. Plasmatic TG, Billirubin, Hydroxybutyrate, AST and ALAT activities were measured enzymatically using Olympus AU 400 apparatus.
For immunohistochemical analysis, liver tissue was fixed overnight in phosphate-buffered 10% formalin and embedded in paraffin. 4 μm sections were cut and processed either for staining with eosin/hematoxylin or for immunohistochemical analyses. Post-staining analyses were performed on digitalized with the NanoZoomer S210 (Hamamatsu) liver tissue slices. Immunohistochemistry of liver tissue sections was performed using anti-p62 (Abnova), anti-TROMA-III-s (DSHB), anti-cytokeratin (AbCyst) or with anti-Lamp1 (Abcam) antibodies.

[3] = system: Vps15 LKO mice; experiment: Immunoblot analyses of total protein liver extracts (Lamp1, Lamp2, p62, LC3, FABP1) of treated mice; assay type: in vivo; conditions: two weeks
Description: as §1, §2
To prepare protein extract for immunoblot analysis, liver tissue was homogenized in lysis buffer containing 20 mM Tris-HCl (pH 8.0), 5% glycerol, 138 mM NaCl, 2.7 mM KCl, 1% NP-40, 20 mM NaF, 5 mM EDTA, 1× protease inhibitors (Roche), 1× PhosphoStop Inhibitors (Roche). Homogenates were spun at 12000×g for 10 min at 4° C. Protein extracts were resolved by SDS-PAGE before transfer onto PVDF membrane followed by incubation with the primary antibodies and HRP-linked secondary antibodies. Immobilon Western Chemiluminescent HRP Substrate (Millipore) was used for the detection. The images were acquired using ChemiDocTouch Imaging System (BioRad) and the quantification performed using ImageJ software.

[4] = system: Vps15 LKO mice; experiment: Plasma biochemical analyses (TG, ALAT, AST) and spleen weight to body weight ratio in treated mice; assay type: in vivo; conditions: two weeks
Description: as §1, §2

[5] = system: Vps15 LKO mice; experiment: Targeted metabolomics of acyl-carnitine fatty acid species in liver tissue of treated mice; assay type: in vivo; conditions: two weeks
Description: as §1, §2
Targeted metabolomics analyses were performed on liver tissue extracts obtained with solution of 50% methanol, 30% ACN, and 20% water. The volume of extraction solution added was calculated from weight of powdered tissue (60 mg/ml). After addition of extraction solution, samples were vortexed for 5 min at 4° C., and then centrifuged at 16,000×g for 15 min at 4° C. The supernatants were collected and analysed by liquid chromatography-mass spectrometry using SeQuant ZIC-pHilic column (Merck) for the liquid chromatography separation. Mobile phase A consisted of 20 mM ammonium carbonate plus 0.1% ammonia hydroxide in water. Mobile phase B consisted of ACN. The flow rate was kept at […], and the gradient was 0 min, 80% of B; 30 min, 20% of B; 31 min, 80% of B; and 45 min, 80% of B. The mass spectrometer (QExactive Orbitrap, Thermo Fisher Scientific) was operated in a polarity switching mode and metabolites were identified using TraceFinder Software (Thermo Fisher Scientific). For analyses, metabolomics data were normalized using the median normalization method. MetaboAnalyst 4.0 software was used for heatmaps generation. The algorithm for heatmap clustering was based on the Pearson distance measure for similarity and the Ward linkage method for biotype clustering.

[6] = system: PPARα; assay type: in vivo; conditions: Vps15 LKO mice, two weeks
Description: All animals used in the study were fed ad libitum standard chow diet (Teklad global protein diet; 20% protein, 75% carbohydrate, 5% fat) and kept under 12 h/12 h (8 am/8 pm) light on/off cycle. Animals were sacrificed between 2-4 pm unless indicated. […] Plasmatic TG, Billirubin, Hydroxybutyrate, AST and ALAT activities were measured enzymatically using Olympus AU 400 apparatus.
Total RNA was isolated from liver tissue using RNAeasy Lipid Tissue Mini Kit (Qiagen). Single-strand complementary DNA was synthesized from 1 μg of total RNA using 125 ng of random hexamer primers and SuperScript II (Life Technologies). RT-qPCR was performed on MX3005P instrument (Agilent) using a Brilliant III Ultra-Fast QPCR Master Mix (Agilent). The relative amounts of the mRNAs studied were determined by means of the 2^−ΔΔCT method, with pinin, S18, cyclophilin, eIF2α, HUS, Ubiquitin as reference genes for studies in mice and pinin for studies in human patient samples.

[7] = Vps15 LKO mice, drug incorporated in food
[8] = Vps15 LKO mice, once per day by oral gavage
[9] = Vps15 LKO mice, once per day by oral gavage, listed as FENO
[10] = control mice, fenofibrate incorporated in food
[11] = Vps15 LKO mice, drug incorporated in food, listed as BEZA

desoxycholic acid [UDCA]
prognosis of patients (% of liver transplantation or survival) [1]: provided no evidence that it might positively affect prognosis of the patients

CC(C)OC(=O)C(C)(C)Oc1ccc(C(=O)c2ccc(Cl)cc2)cc1 [fenofibrate, 2-{4-[(4-chlorophenyl)carbonyl]phenoxy}-2-méthylpropanoatede propan-2-yle]
hepatocyte vacuolation (hematoxylin/eosin) [2, 7]: significantly decrease hepatocyte vacuolation; also recorded: rescues hepatocyte vacuolation
hepatocyte volume (histology) [2, 7]: reduce hepatocyte volume
inflammatory cell infiltration in liver (histology) [2, 7]: reduce hepatocyte volume and inflammatory cell infiltration
liver fibrosis / collagen deposition (quantification of Sirius Red staining) [2, 7]: lower; also recorded: decreased
portal area organization / architecture of intrahepatic biliary system (histology) [2, 7]: effective in improving the portal area organization; also recorded: ameliorates architecture of biliary system
hepatocyte volume (histology) [2, 8]: reduce hepatocyte volume
hepatocyte vacuolation (hematoxylin/eosin) [2, 9]: sufficient to decrease hepatocyte vacuolation; also recorded: rescues hepatocyte vacuolation
portal area organization / architecture of intrahepatic biliary system (histology) [2, 9]: improve the portal area organization; also recorded: ameliorates architecture of intrahepatic biliary system
hepatocyte hypertrophy (histology) [2, 10]: resulted in hepatocyte hypertrophy
LC3 lipidation (LC3-II form) in liver (immunoblot) [3, 7]: induced an important lipidation of LC3 protein; also recorded: promoted LC3-lipidation
accumulation of Lamp proteins (Lamp1, Lamp2) in liver (immunoblot) [3, 7]: significantly ameliorated; also recorded: significantly reverted
autophagic clearance in liver [3, 7]: promotes autophagic clearance
p62 protein levels in liver (immunoblot) [3, 7]: significantly ameliorated; also recorded: decreased levels of p62 protein
LC3 lipidation (LC3-II form) in liver (immunoblot) [3, 8]: promoted LC3-lipidation
accumulation of Lamp1 protein in liver (immunoblot) [3, 8]: reduced
autophagic clearance in liver [3, 8]: promoted autophagic clearance
p62 protein levels in liver (immunoblot) [3, 8]: reduction of p62 accumulation
protein expression of PPARα target Fabp1 in liver (immunoblot) [3, 8]: equally effective in restoring
LC3 lipidation (LC3-II form) in liver (immunoblot) [3, 9]: increased lipidation of LC3
accumulation of Lamp1 protein in liver (immunoblot) [3, 9]: decreased Lamp1 and p62 protein levels
p62 protein levels in liver (immunoblot) [3, 9]: decreased Lamp1 and p62 protein levels
LC3 lipidation (LC3-II form) in liver (immunoblot) [3, 10]: induced an important lipidation of LC3 protein; also recorded: promoted LC3-lipidation
liver damage: activity of transaminases (ALAT, AST) in plasma [4, 7]: significantly decreased activity of transaminases; also recorded: more effective in lowering liver damage compared to bezafibrate; also recorded: significantly ameliorates liver damage
triglyceride (TG) levels in plasma [4, 7]: resulted in their normalization; also recorded: effective in lowering TG levels; also recorded: beneficial effect in lowering plasmatic triglycerides
triglyceride (TG) levels in plasma [4, 8]: effective in lowering TG levels
triglyceride levels in plasma [4, 10]: effective in lowering triglyceride levels
fatty acid oxidation in liver (metabolomics) ([5]; once per day by oral gavage): marked restoration of fatty acid oxidation
levels of long-chain fatty acid carnitines in liver ([5]; once per day by oral gavage): decreased levels of long-chain fatty acid carnitines
levels of short-chain fatty acid carnitines in liver ([5]; once per day by oral gavage): increased levels of short-chain fatty acid carnitines
fatty acid oxidation in liver (metabolomics) ([5]; once per day by oral gavage, listed as FENO): sufficient to restore the metabolic activity such as fatty-acid oxidation

CC(C)(Oc1ccc(CCNC(=O)c2ccc(Cl)cc2)cc1)C(=O)O [bezafibrate, 2-(4-(2-((4-chlorobenzoyl)amino)ethyl)phenoxy)-2-methylpropanoic acid]
PPARα transcriptional activity in liver (transcript levels of PPARα target genes) ([6]; drug incorporated in food (fenofibrate 200 mg/kg or bezafibrate 0.5%)): equally efficient in restoring PPARα transcriptional activity; also recorded: restoration of PPARα function
liver inflammation (transcript levels of TNF1α, IL1β, F4/80) ([6]; drug incorporated in food): effective in reducing the inflammation
hepatocyte volume (histology) [2, 7]: reduce hepatocyte volume
hepatocyte vacuolation (hematoxylin/eosin) [2, 11]: sufficient to decrease hepatocyte vacuolation; also recorded: rescues hepatocyte vacuolation
portal area organization / architecture of intrahepatic biliary system (histology) [2, 11]: improve the portal area organization; also recorded: ameliorates architecture of intrahepatic biliary system
LC3 lipidation (LC3-II form) in liver (immunoblot) [3, 7]: promoted LC3-lipidation
accumulation of Lamp proteins (Lamp1, Lamp2) in liver (immunoblot) [3, 7]: reduced
autophagic clearance in liver [3, 7]: promoted autophagic clearance
p62 protein levels in liver (immunoblot) [3, 7]: reduction of p62 accumulation
protein expression of PPARα target Fabp1 in liver (immunoblot) [3, 7]: equally effective in restoring
LC3 lipidation (LC3-II form) in liver (immunoblot) [3, 11]: increased lipidation of LC3
accumulation of Lamp proteins (Lamp1, Lamp2) in liver (immunoblot) [3, 11]: decreased Lamp1 and p62 protein levels
p62 protein levels in liver (immunoblot) [3, 11]: decreased Lamp1 and p62 protein levels
liver damage: activity of transaminases (ALAT, AST) in plasma [4, 7]: fenofibrate, independently of mode of administration, was more effective in lowering liver damage compared to bezafibrate treatment
spleen hypertrophy (ratio of spleen weight to body weight) [4, 7]: decreasing spleen hypertrophy
triglyceride (TG) levels in plasma [4, 7]: effective in lowering TG levels
fatty acid oxidation in liver (metabolomics) ([5]; drug incorporated in food): marked restoration of fatty acid oxidation
levels of long-chain fatty acid carnitines in liver ([5]; drug incorporated in food): decreased levels of long-chain fatty acid carnitines
levels of short-chain fatty acid carnitines in liver ([5]; drug incorporated in food): increased levels of short-chain fatty acid carnitines
fatty acid oxidation in liver (metabolomics) ([5]; drug incorporated in food, listed as BEZA): sufficient to restore the metabolic activity such as fatty-acid oxidation
